Results on 21 compounds are retold here after patent US20170240539A1, “Preparation and Use of Cyclic Sulfonamide Derivatives as PAR-1 Receptor Antagonists” (MERCK SHARP & DOHME CORP., priority 2014, published 2017).

The target in this experiment is T1, PAR-1 receptor (Homo sapiens, UniProt P25116).
T1 construct: endogenous in cells; host or cells: HEK 293
T1 sequence (P25116 22-425): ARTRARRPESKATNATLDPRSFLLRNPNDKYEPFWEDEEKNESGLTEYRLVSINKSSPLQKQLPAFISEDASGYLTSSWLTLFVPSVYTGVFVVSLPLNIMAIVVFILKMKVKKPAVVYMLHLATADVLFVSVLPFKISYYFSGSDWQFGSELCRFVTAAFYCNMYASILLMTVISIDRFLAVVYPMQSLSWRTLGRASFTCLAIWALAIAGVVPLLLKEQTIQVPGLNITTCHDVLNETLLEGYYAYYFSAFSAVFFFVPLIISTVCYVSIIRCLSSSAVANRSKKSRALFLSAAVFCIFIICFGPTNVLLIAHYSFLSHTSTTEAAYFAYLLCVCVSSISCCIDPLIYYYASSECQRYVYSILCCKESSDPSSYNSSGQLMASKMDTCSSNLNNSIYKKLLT
The experiment in a line: PAR-1 FLIPR Assay. Type of experiment: cell-based. The note with it: HEK 293 cells, FLIPR calcium-5 dye; inhibition of signal from PAR1 selective receptor-activating peptide at 80% activation concentration (1.4-2.0 uM); compound incubated 30 minutes at 25 degrees. Here is the method: The following assay was used to determine the ability of the inventive compounds to inhibit the PAR-1 receptor.
HEK 293 Cells are grown in media containing DMEM, 10% FBS pen/strep/L-Glutamine and non-essential amino acids. The cells are plated in 384-well PDL coated plates at 12000 cells/well and incubated overnight at 37° C./5% CO2. Media is then removed from the cells, which are then incubated with buffer (Hank's containing HEPES and Chaps) containing FLIPR calcium-5 dye, made with buffer containing probenecid, for 60 minutes at 37° C. Varying concentrations of compound in a final concentration of 5% DMSO are then added to the cells and incubated at 25 degrees for 30 minutes. The plates are then added to a FLIPR Tetra cellular screening system and the device adds a concentration of a PAR1 selective receptor-activating peptide with the sequence Ala-parafluoroPhe-Arg-Cha-Cit-Tyr-NH2 (SEQ ID NO: 3) (prepared in water) at a concentration equal to the effective concentration that achieves 80% activation of signaling on the day of the experiment. The range is from 1.4-2.0 uM peptide. The FLIPR reads at an excitation wavelength of 480 nm and an emission wavelength of 535 nm, and performs 60 scans over a 1-2 min reading time. The data are analyzed by taking the peak signal over a portion of the range of the 60 scans and dividing this signal by the minimum signal for that same range. The data are expressed as percent inhibition of the maximum divided by the minimum signal achieved at 80% activation produced by the PAR1 activating peptide on the test day.
As to `C[C@H]1NS(=O)(=O)[C@@H]2CC(F)(F)[C@@H](C)[C@H](/C=C/c3ccc(-c4cccc(F)c4)cn3)[C@@H]21` [Example 5, (3R,3aR,4S,5S,7aR)-6,6-difluoro-4-((E)-2-(5-(3-fluorophenyl)pyridin-2-yl)vinyl)-3,5-dimethyloctahydrobenzo[d]isothiazole 1,1-dioxide], the IC50 was 19 nM.
`CC[C@@H]1CC[C@@H]2[C@H]([C@H]1/C=C/c1ccc(-c3ccccc3C#N)cn1)[C@@H](C)N(C(=O)OC(C)(C)C)S2(=O)=O` [Example 11, (3R,3aR,4R,5R,7aR)-tert-butyl 4-((E)-2-(5-(2-cyanophenyl)pyridin-2-yl)vinyl)-5-ethyl-3-methylhexahydrobenzo[d]isothiazole-2(3H)-carboxylate1,1-dioxide]: the concentration for half-maximal inhibition (IC50) was determined as 286 nM.
Take `CCOC(=O)C[C@@]12CC(F)(F)[C@@H](C)[C@H](/C=C/c3ccc(-c4ccccc4C#N)cn3)[C@@H]1[C@@H](C)N(C(=O)OC(C)(C)C)S2(=O)=O` [Example 26]: the IC50 came out at 54 nM.
For `CC[C@@H]1CC[C@@H]2[C@H]([C@H]1/C=C/c1ccc(-c3ccccc3C#N)cn1)[C@@H](C)NS2(=O)=O` [Example 10, 2-(6-((E)-2-((3R,3aR,4R,5R,7aR)-5-ethyl-3-methyl-1,1-dioxidooctahydrobenzo[d]isothiazol-4-yl)vinyl)pyridin-3-yl)benzonitrile], the IC50 amounted to 0.97 nM.
As for `Cc1nc(/C=C/[C@@H]2[C@H]3[C@@H](CC(F)(F)[C@H]2C)S(=O)(=O)N[C@@H]3C)ccc1-c1ccccc1C#N` [Example 6, (3R,3aR,4S,5S,7aR)-4-((E)-2-(5-(2-cyanophenyl)pyridin-2-yl)-6-methylvinyl)-6,6-difluoro-3,5-dimethyloctahydrobenzo[d]isothiazole-1,1-dioxide], the IC50 worked out at 66.7 nM.
As for `C[C@H]1NS(=O)(=O)[C@]2(C)CC(F)(F)[C@@H](C)[C@H](/C=C/c3ccc(-c4ccccc4C#N)cn3)[C@H]12` [Example 16, (3R,3aR,4S,5S,7aR)-6,6-difluoro-4-((E)-2-(5-(2-cyanophenyl)pyridin-2-yl)vinyl)-3,5,7a-trimethyloctahydrobenzo[d]isothiazole 1,1-dioxide], the IC50 worked out at 11.8 nM.
To `CC[C@@H]1CC[C@@H]2[C@H]([C@H]1/C=C/c1ccc(-c3ccccc3C#N)cn1)[C@@H](C)N(C)S2(=O)=O` [Example 27, 2-(6-((E)-2-((3R,3aR,4R,5R,7aR)-5-ethyl-2,3-dimethyl-1,1-dioxidooctahydrobenzo[d]isothiazol-4-yl)vinyl)pyridin-3-yl)benzonitrile] belongs 13 nM; to `C[C@H]1NS(=O)(=O)[C@]2(CC(N)=O)CC(F)(F)[C@@H](C)[C@H](/C=C/c3ccc(-c4cccnc4C#N)cn3)[C@H]12` [Example 24, 2-((3R,3aR,4S,5S,7aR)-6,6-difluoro-4-((E)-2-(2′-cyano-[3,3′-bipyridin]-6-yl)vinyl)-3,5-dimethyl-1,1-dioxidooctahydrobenzo[d]isothiazol-7a-yl)acetamide], 89 nM; to `COc1ncccc1-c1ccc(/C=C/[C@@H]2[C@@H]3[C@@H](C)NS(=O)(=O)[C@]3(CC(N)=O)CC(F)(F)[C@H]2C)nc1` [Example 18, 2-((3R,3aR,4S,5S,7aR)-6,6-difluoro-4-((E)-2-(2′-methoxy-[3,3′-bipyridin]-6-yl)vinyl)-3,5-dimethyl-1,1-dioxidooctahydrobenzo[d]isothiazol-7a-yl)acetamide], 36.8 nM.
As for `CCOC(=O)N1[C@H](C)[C@H]2[C@@H](/C=C/c3ccc(-c4ccccc4C#N)cn3)[C@H](CC)CC[C@H]2S1(=O)=O` [Example 28, (3R,3aR,4R,5R,7aR)-ethyl 4-((E)-2-(5-(2-cyanophenyl)pyridin-2-yl)vinyl)-5-ethyl-3-methylhexahydrobenzo[d]isothiazole-2(3H)-carboxylate 1,1-dioxide], the IC50 stood at 325 nM.
`C[C@H]1NS(=O)(=O)[C@]2(CC(N)=O)CC(F)(F)[C@@H](C)[C@H](/C=C/c3ccc(-c4ccccc4C#N)cn3)[C@H]12` [Example 23, 2-((3R,3aR,4S,5S,7aR)-4-((E)-2-(5-(2-cyanophenyl)pyridin-2-yl)vinyl)-6,6-difluoro-3,5-dimethyl-1,1-dioxidooctahydrobenzo[d]isothiazol-7a-yl)acetamide]: the IC50 is 3 nM.
Turning to `C[C@H]1NS(=O)(=O)[C@@H]2CC(F)(F)[C@@H](C)[C@H](/C=C/c3ccc(-c4ccccc4C#N)cn3)[C@@H]21` [Example 3, (3R,3aR,4S,5S,7aR)-4-((E)-2-(5-(2-cyanophenyl)pyridin-2-yl)vinyl)-6,6-difluoro-3,5-dimethyloctahydrobenzo[d]isothiazole-1,1-dioxide], the IC50 turned out to be 11.9 nM.
Take `C[C@H]1NS(=O)(=O)[C@@H]2CC(F)(F)[C@@H](C)[C@H](/C=C/c3ccc(-c4cccnc4C#N)cn3)[C@@H]21` [Example 2, (3R,3aR,4S,5S,7aR)-6,6-difluoro-4-((E)-2-(2′-cyano-[3,3′-bipyridin]-6-yl)vinyl)-3,5-dimethyloctahydrobenzo[d]isothiazole 1,1-dioxide]: the IC50 was 55.8 nM.
For the compound `COc1ncccc1-c1ccc(/C=C/[C@@H]2[C@@H]3[C@@H](C)N(C(=O)OC(C)(C)C)S(=O)(=O)[C@@H]3CC(F)(F)[C@H]2C)nc1` [Example 13, (3R,3aR,4S,5S,7aR)-tert-butyl 6,6-difluoro-4-((E)-2-(2′-methoxy-[3,3′-bipyridin]-6-yl)vinyl)-3,5-dimethylhexahydrobenzo[d]isothiazole-2(3H)-carboxylate 1,1-dioxide], the IC50 worked out at 278 nM.
With `CC(=O)N1[C@H](C)[C@H]2[C@@H](/C=C/c3ccc(-c4ccccc4C#N)cn3)[C@H](C)C(F)(F)C[C@H]2S1(=O)=O` [Example 4, 1-((3R,3aR,4S,5S,7aR)-6,6-difluoro-4-((E)-2-(5-(2-cyanophenyl)pyridin-2-yl)vinyl)-3,5-dimethyl-1,1-dioxidohexahydrobenzo[d]isothiazol-2(3H)-yl)ethanone] the figure was 483 nM.
With `COc1ncccc1-c1ccc(/C=C/[C@@H]2[C@@H]3[C@@H](C)NS(=O)(=O)[C@]3(C)CC(F)(F)[C@H]2C)nc1` [Example 12, (3R,3aR,4S,5S,7aR)-6,6-difluoro-4-((E)-2-(2′-methoxy-[3,3′-bipyridin]-6-yl)vinyl)-3,5,7a-trimethyloctahydrobenzo[d]isothiazole 1,1-dioxide] the figure was 4.2 nM; with `COc1ncccc1-c1ccc(/C=C/[C@@H]2[C@H]3[C@@H](CC(F)(F)[C@H]2C)S(=O)(=O)N[C@@H]3C)nc1` [Example 1, (3R,3aR,4S,5S,7aR)-6,6-difluoro-4-((E)-2-(2′-methoxy-[3,3′-bipyridin]-6-yl)vinyl)-3,5-dimethyloctahydrobenzo[d]isothiazole 1,1-dioxide], 5.1 nM; with `C[C@H]1NS(=O)(=O)[C@]2(C)CC(F)(F)[C@@H](C)[C@H](/C=C/c3ccc(-c4cccc(F)c4)cn3)[C@H]12` [Example 15, (3R,3aR,4S,5S,7aR)-6,6-difluoro-4-((E)-2-(5-(3-fluorophenyl)pyridin-2-yl)vinyl)-3,5,7a-trimethyloctahydrobenzo[d]isothiazole 1,1-dioxide], 55.1 nM.
As to `C[C@@H]1[C@H](/C=C/c2ccc(-c3ccccc3C#N)cn2)[C@H]2[C@@H](CC1(F)F)S(=O)(=O)N[C@@H]2C` [Example 8, (3R,3aR,4S,5R,7aR)-4-((E)-2-(5-(2-cyanophenyl)pyridin-2-yl)vinyl)-6,6-difluoro-3,5-dimethyloctahydrobenzo[d]isothiazole-1,1-dioxide], the IC50 turned out to be 178 nM.
Turning to `C[C@H]1NS(=O)(=O)[C@]2(CC(=O)O)CC(F)(F)[C@@H](C)[C@H](/C=C/c3ccc(-c4ccccc4C#N)cn3)[C@H]12` [Example 25, 2-((3R,3aR,4S,5S,7aR)-4-((E)-2-(5-(2-cyanophenyl)pyridin-2-yl)vinyl)-6,6-difluoro-3,5-dimethyl-1,1-dioxidooctahydrobenzo[d]isothiazol-7a-yl)acetic acid], the IC50 was 12 nM.
To `C[C@@H]1[C@H]2[C@@H](/C=C/c3ccc(-c4cccc(F)c4)cn3)[C@H](C)C(F)(F)C[C@H]2S(=O)(=O)N1C(=O)OC(C)(C)C` [Example 14, (3R,3aR,4S,5S,7aR)-tert-butyl 6,6-difluoro-4-((E)-2-(5-(3-fluorophenyl)pyridin-2-yl)vinyl)-3,5-dimethylhexahydrobenzo[d]isothiazole-2(3H)-carboxylate 1,1-dioxide] belongs 383 nM.

Usually IC50 stands for the midpoint of a concentration-inhibition curve.
